Data published in the METLIN SMRT retention time set (Domingo-Almenara et al. 2019).

Assay: gradient 5% acetonitrile 3 min, to 50% in 2 min, to 85% in 15 min, held 3 min, 100 µL/min
Conditions: column: Zorbax Extend-C18 2.1 x 50 mm; eluents: water / acetonitrile, 0.1% formic acid
Outline: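 Each retention time is based on an adduct peak selected computationally and verified by manual inspection. Measurements used HPLC–quadrupole time-of-flight mass spectrometry in positive and negative ionization mode on mixtures of ~100 pure standards. Chromatography ran on a Zorbax Extend-C18 column (2.1 × 50 mm, 1.8 μm) at 100 μL/min with water and acetonitrile, each containing 0.1% formic acid, and dead and dwell volumes of 40 μL and 900 μL.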

Compound: Cc1noc(C)c1Cc1ccc(C(=O)NCCc2noc(C3CC3)n2)o1
- RP-LC retention time: 745 s

Compound: COc1ccc(-n2ncc3c(=O)n(Cc4nc(-c5ccccc5OC)no4)cnc32)cc1
- RP-LC retention time: 902 s

Compound: O=C(Cn1cnc2ccccc2c1=O)N[C@@H](Cc1ccccc1)C(=O)O
- RP-LC retention time: 671 s

Compound: O=C(Nc1cccc(C(F)(F)F)c1)Nc1cnn(-c2ncc(N3CCCC3)cn2)c1
- RP-LC retention time: 921 s

Compound: CCn1cc(-c2nc(C)c(C(=O)NCc3ccccn3)s2)c2cccnc21
- RP-LC retention time: 946 s

Compound: O=C(Nc1nnc(CCS(=O)(=O)c2ccccc2)o1)C1COc2ccccc2O1 (stereo unspecified)
- RP-LC retention time: 686 s

Compound: O=c1c(NC2CCCCCC2)nc2ccncc2n1Cc1ccccc1
- RP-LC retention time: 807 s

Compound: CC1=C(c2ccc(F)cc2)S(=O)(=O)N=C1N1CCCN(C(=O)c2ccccc2C)CC1
- RP-LC retention time: 831 s

Compound: CCn1ccc(C(=O)Nc2nnc(CSc3ccccc3)o2)n1
- RP-LC retention time: 712 s

Compound: Cn1cc(-c2ccncc2)cc1C(=O)N1CCC2(CC1)OCCO2
- RP-LC retention time: 562 s

Compound: Cc1ccc2nc3c(c(C(=O)NC(C)C)c2c1)CCCC3
- RP-LC retention time: 618 s

Compound: COCCCNC(=O)c1nnc(-c2ccc(S(=O)(=O)N(C)C)cc2)o1
- RP-LC retention time: 717 s

Compound: COc1cc(CNC(=O)CN2C(=O)C(C)(C)c3cc(C)ccc32)cc(OC)c1OC
- RP-LC retention time: 794 s

Compound: Cc1csc(-c2cc(S(=O)(=O)Nc3cccc(C)c3C)c(C)s2)n1
- RP-LC retention time: 1090 s

Compound: Cc1onc(-c2cccc(Br)c2)c1C(=O)NCCCOC(C)C
- RP-LC retention time: 880 s

Compound: Cc1cccc(C)c1NC(=O)Cn1c(C)nc2c(sc3nc(-c4ccccc4)ccc32)c1=O
- RP-LC retention time: 1080 s

Compound: O=c1c2cnc3nc(-c4ccc(Cl)cc4)nn3c2ccn1CCO
- RP-LC retention time: 716 s

Compound: CCC(=O)N1CCc2cc(N3CC(C(=O)Nc4cc(Cl)ccc4OC)CC3=O)ccc21 (stereo unspecified)
- RP-LC retention time: 828 s

Compound: CCCNC(=O)C1CCN(S(=O)(=O)c2cc(C(=O)N3CCCC3)n(C)c2)CC1
- RP-LC retention time: 648 s

Compound: Cc1ccccc1-n1c(=O)c2sccc2n(Cc2nc(-c3ccc(OC(C)C)cc3)no2)c1=O
- RP-LC retention time: 1120 s

Compound: O=c1ncn2nc(Sc3ccc(F)cc3F)ccc2c1-c1c(Cl)cccc1Cl
- RP-LC retention time: 894 s

Compound: COc1ccc(CNS(=O)(=O)c2cc(-c3cc(C(F)(F)F)on3)sc2C)cc1
- RP-LC retention time: 848 s

Compound: COc1ccc(N2CC(C(=O)NCCc3c[nH]c4ccccc34)CC2=O)cc1 (stereo unspecified)
- RP-LC retention time: 725 s

Compound: O=c1c2sccc2n(Cc2nc(-c3cccc(C(F)(F)F)c3)no2)c(=O)n1-c1ccccc1F
- RP-LC retention time: 1090 s

Compound: CCN(CC)CCCNc1ncnc2c1cnn2-c1ccc(C)c(C)c1
- RP-LC retention time: 663 s

Compound: Cc1nc(-c2ccc(C(=O)N3CCC(C)CC3)cc2)no1
- RP-LC retention time: 840 s

Compound: Cc1ccc(Cn2c(C(=O)NCc3ccccc3)cc3sccc32)cc1
- RP-LC retention time: 864 s

Compound: C=CC(=O)Nc1cc2c(Nc3ccc(F)c(Cl)c3)ncnc2cc1OCCCN1CCOCC1
- RP-LC retention time: 630 s

Compound: CCN1C[C@H](C)n2c(c(O)c3c(=O)n(Cc4ccc(F)c(Cl)c4)nc(C(=O)NC)c32)C1=O
- RP-LC retention time: 871 s

Compound: CCC(C)NC(=O)N1CCN(Cc2nc3cccnc3n2-c2cc(C)cc(C)c2)CC1 (stereo unspecified)
- RP-LC retention time: 672 s

Compound: COc1ccc(-c2c(C)noc2NC(C)=O)cc1S(=O)(=O)Nc1cccc(SC)c1
- RP-LC retention time: 779 s

Compound: Cn1cnnc1SCCNC(=O)Cc1noc2ccccc12
- RP-LC retention time: 591 s

Compound: NC(=O)Cc1ccc(NS(=O)(=O)c2cccs2)cc1
- RP-LC retention time: 604 s

Compound: Cc1ccn2cc(-c3ccc(NC(=O)c4ccccc4F)cc3)nc2n1
- RP-LC retention time: 634 s

Compound: O=S(=O)(c1ccccc1Cl)N1CCCC1Cc1noc(-c2ccccc2)n1 (stereo unspecified)
- RP-LC retention time: 1110 s

Compound: CCOc1ccc(-c2noc(CN3N=NC4C(=O)N(c5cccc(SC)c5)C(=O)C43)n2)cc1OC (stereo unspecified)
- RP-LC retention time: 984 s

Compound: CCOc1ccc(CCNC(=O)C2CCCN2C(=O)OCc2ccccc2)cc1OCC (stereo unspecified)
- RP-LC retention time: 890 s

Compound: Cc1ccc(CN2CCc3nc(N4CCCC4)ncc3C2)cc1C
- RP-LC retention time: 640 s

Compound: COCCCNC(=O)C1c2ccccc2CC(=O)N1C(C)C (stereo unspecified)
- RP-LC retention time: 651 s

Compound: COc1ccc(-c2nc3ncccn3c2Nc2cc(C)ccc2C)cc1
- RP-LC retention time: 792 s

Compound: Cc1cc(C(=O)NCCCc2ccccc2)c2c(=O)n(C)c(=O)n(C)c2n1
- RP-LC retention time: 750 s

Compound: CC12CC(NC(=O)N1c1cccc(C(=O)NCc3ccccn3)c1)c1cc(Cl)ccc1O2 (stereo unspecified)
- RP-LC retention time: 647 s

Compound: Cc1noc(-c2ccc(OC3CN(C(=O)C(C)Oc4ccccc4)C3)cc2)n1 (stereo unspecified)
- RP-LC retention time: 899 s

Compound: Cc1cc(C)cc(NC(=O)CN2C(=O)C(C(=O)N3CCCC3)Sc3ccccc32)c1 (stereo unspecified)
- RP-LC retention time: 1070 s

Compound: CC(C)CNC(=O)Cc1nnc(-c2ccccc2)o1
- RP-LC retention time: 718 s

Compound: FC1(c2nc(-c3ccccc3)no2)CCN(C2CCOCC2)CC1
- RP-LC retention time: 636 s

Compound: CCCNC(=O)C1CCN(c2ccc(SCC(=O)NCc3ccc(C)cc3)nn2)CC1
- RP-LC retention time: 656 s

Compound: CC1CCN(CCNc2ncccc2-c2nnc(-c3ccc(Cl)cc3)o2)CC1
- RP-LC retention time: 813 s

Compound: CN(C)CCNC(=O)c1ccc2c(c1)N(Cc1ccccc1)CCS2
- RP-LC retention time: 689 s

Compound: O=c1n(Cc2ccccc2)nc2c(S(=O)(=O)N3CCc4ccccc4C3)cccn12
- RP-LC retention time: 942 s

Compound: Cc1cc(C)c(NC(=O)Cn2cnc3nc(N4CCCC(C(=O)NC(C)C)C4)sc3c2=O)c(C)c1 (stereo unspecified)
- RP-LC retention time: 728 s

Compound: COCCC1CCN(C(=O)COc2ccc(Cl)cc2)CC1
- RP-LC retention time: 849 s

Compound: CNC(=O)c1noc([C@@H]2CC(F)(F)CN2CC2CC2)n1
- RP-LC retention time: 724 s

Compound: CCOC(Cn1c(-c2ccc(OC)cc2)nc2ccccc21)OCC
- RP-LC retention time: 713 s

Compound: Cc1nn2c(CNC(=O)Cc3ccsc3)c(-c3ccccc3)nc2s1
- RP-LC retention time: 866 s

Compound: CN(C)CCNC(=O)C1CCN(c2nc3ccc(-c4cncnc4)nc3s2)CC1
- RP-LC retention time: 574 s

Compound: CCC(C)(C)NC(=O)C1CCN(S(=O)(=O)c2c(C)[nH]c(C)c2C(=O)N2CCCCC2)CC1
- RP-LC retention time: 746 s

Compound: O=C1CC(c2ccc(C(=O)O)cc2)c2scc(-c3ccccc3F)c2N1 (stereo unspecified)
- RP-LC retention time: 804 s

Compound: Cc1cccc(-c2nnc(CC(=O)NCCC(C)C)o2)c1
- RP-LC retention time: 828 s

Compound: COc1ccc(C)cc1NC(=O)N1CCC2(CC1)NC(=O)c1ccc(Cl)cc1N2
- RP-LC retention time: 806 s

Compound: COc1ccc(-c2noc(CCCC(=O)Nc3nc(-c4ccc(Cl)cc4)c(C)s3)n2)cc1
- RP-LC retention time: 1190 s

Compound: CCc1nnc(-c2cc(NC(=O)c3ccc4nc[nH]c4c3)c(C)s2)o1
- RP-LC retention time: 632 s

Compound: COc1ncc(C(=O)Nc2cccc(F)c2)c(C)n1
- RP-LC retention time: 757 s

Compound: COc1ccc(NC(=O)N2CC=C(c3cn(C)c4ncccc34)CC2)cc1OC
- RP-LC retention time: 714 s

Compound: COc1ccc(-c2ccc(=O)n(CCCNS(=O)(=O)/C=C/c3ccccc3)n2)cc1
- RP-LC retention time: 830 s

Compound: CCOc1cccc(CNC(=O)c2nc(N3CCSCC3)c3cnn(C)c3n2)c1
- RP-LC retention time: 854 s
